Reference: PubChem BioAssay AID328 (DTP/NCI, 2004)
Where “and” joins values, the source holds several entries; their conditions need not be identical. Equal entries are not always repeated. Toxic doses and inconclusive results are not listed.

Tested on: BDF1 mice, P388 leukemia ip, median survival T/C
Test: NCI In Vivo Anticancer Drug Screen. Data for tumor model P388 Leukemia (intraperitoneal) in B6D2F1 (BDF1) mice
Details: endpoint: median survival time, higher = longer survival
Outline: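 Vehicle-dosed animals serve as the reference; survival of compound-dosed, tumour-implanted mice is divided by it.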

[1] = dose: 6.25 mg/kg/injection, schedule: Q01DX009 (ip), vehicle: saline
[2] = dose: 25.0 mg/kg/injection, schedule: Q01DX009 (ip), vehicle: saline
[3] = dose: 100.0 mg/kg/injection, schedule: Q01DX009 (ip), vehicle: Klucel (hydroxypropylcellulose) (HPC)
[4] = dose: 100.0 mg/kg/injection, schedule: Q04DX003 (ip), vehicle: Klucel (hydroxypropylcellulose) (HPC)
[5] = dose: 200.0 mg/kg/injection, schedule: Q01DX009 (ip), vehicle: Klucel (hydroxypropylcellulose) (HPC)
[6] = dose: 200.0 mg/kg/injection, schedule: Q04DX003 (ip), vehicle: Klucel (hydroxypropylcellulose) (HPC)
[7] = dose: 400.0 mg/kg/injection, schedule: Q04DX003 (ip), vehicle: Klucel (hydroxypropylcellulose) (HPC)
[8] = dose: 50.0 mg/kg/injection, schedule: Q01DX009 (ip), vehicle: saline with Tween-80
[9] = dose: 100.0 mg/kg/injection, schedule: Q01DX009 (ip), vehicle: saline with Tween-80
[10] = dose: 50.0 mg/kg/injection, schedule: Q04DX003 (ip), vehicle: saline with Tween-80
[11] = dose: 100.0 mg/kg/injection, schedule: Q04DX003 (ip), vehicle: saline with Tween-80
[12] = dose: 50.0 mg/kg/injection, schedule: Q01DX009 (ip), vehicle: saline
[13] = dose: 100.0 mg/kg/injection, schedule: Q01DX009 (ip), vehicle: saline
[14] = dose: 200.0 mg/kg/injection, schedule: Q01DX009 (ip), vehicle: saline with Tween-80

With `Cc1ncc(CO)c(C2NOCc3nscc32)c1O` (configuration not stated) the T/C (dose: 7.0 mg/kg/injection, schedule: Q01DX009 (ip), vehicle: Klucel (hydroxypropylcellulose) (HPC)) was 95 % of control, the T/C (dose: 11.25 mg/kg/injection, schedule: Q01DX001 (ip), vehicle: saline) was 104 % of control and the T/C (dose: 14.0 mg/kg/injection, schedule: Q01DX009 (ip), vehicle: Klucel (hydroxypropylcellulose) (HPC)) was 95 % of control. For the same molecule, the T/C (dose: 19.0 mg/kg/injection, schedule: Q04DX003 (ip), vehicle: saline) was 95 % of control, the T/C (dose: 22.5 mg/kg/injection, schedule: Q01DX001 (ip), vehicle: saline) was 104 % of control and the T/C (dose: 45.0 mg/kg/injection, schedule: Q01DX001 (ip), vehicle: saline) was 100 % of control. The T/C (dose: 45.0 mg/kg/injection, schedule: Q04DX003 (ip), vehicle: saline) was 90 % of control.

`Cc1cccc[n+]1CCC(N)=O` was tested, and the T/C [1] was 92 % of control, the T/C (dose: 12.5 mg/kg/injection, schedule: Q01DX009 (ip), vehicle: saline) was 117 % of control and the T/C [2] was 103 % of control.

In the case of `CCOC(=O)CC(C)(C)NCc1ccccc1`, the T/C (dose: 25.0 mg/kg/injection, schedule: Q01DX009 (ip), vehicle: Klucel (hydroxypropylcellulose) (HPC)) is reported as 90 % of control, the T/C (dose: 25.0 mg/kg/injection, schedule: Q04DX003 (ip), vehicle: Klucel (hydroxypropylcellulose) (HPC)) is reported as 108 % of control and the T/C (dose: 50.0 mg/kg/injection, schedule: Q04DX003 (ip), vehicle: Klucel (hydroxypropylcellulose) (HPC)) is reported as 95 % of control. For the same molecule, the T/C [3] was 95 % of control and the T/C [4] was 116 % of control.

With `CC(C(=O)O)N1C(=O)c2ccccc2C1=O` (configuration not stated) the T/C [3] was 109 % of control, the T/C [4] was 100 % of control and the T/C [5] was 109 % of control. The T/C [6] was 104 % of control, the T/C (dose: 400.0 mg/kg/injection, schedule: Q01DX009 (ip), vehicle: Klucel (hydroxypropylcellulose) (HPC)) was 118 % of control and the T/C [7] was 100 % of control.

In the case of `C=C1C(=O)OC2/C=C(\C)C(=O)/C=C\C(C)(O)CC(OC(=O)C(C)C)C12` (configuration not stated), the T/C (dose: 25.0 mg/kg/injection, schedule: Q01DX009 (ip), vehicle: saline + alcohol) is reported as 100 % of control.

In the case of `CN(C)c1ccc(/C=C\c2ccnc3ccccc23)cc1Br`, the T/C (dose: 12.5 mg/kg/injection, schedule: Q01DX009 (ip), vehicle: saline with Tween-80) is reported as 107 % of control, the T/C (dose: 25.0 mg/kg/injection, schedule: Q01DX009 (ip), vehicle: saline with Tween-80) is reported as 94 % of control and the T/C [8] is reported as 99 % of control. For the same molecule, the T/C [9] was 89 % of control.

For `COc1cc(N2CCOCC2)ccc1N`, the T/C (dose: 1.56 mg/kg/injection, schedule: Q01DX009 (ip), vehicle: saline) was 154 % of control, the T/C [1] was 122 % of control and the T/C (dose: 25.0 mg/kg/injection, schedule: Q04DX003 (ip), vehicle: saline) was 118 % of control. The T/C (dose: 44.0 mg/kg/injection, schedule: Q04DX003 (ip), vehicle: saline) was 108 % of control and the T/C (dose: 66.0 mg/kg/injection, schedule: Q04DX003 (ip), vehicle: saline) was 116 % of control.

`CCOC(=O)C(=CN(C(C)C)C(C)C)C(=O)OCC` was tested, and the T/C [10] was 109 % of control, the T/C [11] was 104 % of control and the T/C (dose: 200.0 mg/kg/injection, schedule: Q04DX003 (ip), vehicle: saline with Tween-80) was 109 % of control.

With `CC(=O)CC(C)=O.CC(=O)CC(C)=O.Cc1ncc[nH]1.Cc1ncc[nH]1.[Co]` the T/C (dose: 12.5 mg/kg/injection, schedule: Q01DX001 (ip), vehicle: saline with Tween-80) was 100 % of control, the T/C (dose: 25.0 mg/kg/injection, schedule: Q01DX001 (ip), vehicle: saline with Tween-80) was 97 % of control and the T/C (dose: 50.0 mg/kg/injection, schedule: Q01DX001 (ip), vehicle: saline with Tween-80) was 113 % of control.

With `O=S(=O)(Nc1ccc(NS(=O)(=O)c2ccccc2)cc1)c1ccccc1` the T/C (dose: 3.12 mg/kg/injection, schedule: Q01DX009 (ip), vehicle: Klucel (hydroxypropylcellulose) (HPC)) was 100 % of control, the T/C (dose: 6.25 mg/kg/injection, schedule: Q01DX009 (ip), vehicle: Klucel (hydroxypropylcellulose) (HPC)) was 100 % of control and the T/C (dose: 12.5 mg/kg/injection, schedule: Q01DX009 (ip), vehicle: Klucel (hydroxypropylcellulose) (HPC)) was 95 % of control. For the same molecule, the T/C [3] was 96 % of control.

In the case of `CC(=O)OC(C)(C)/C=C/C(=O)[C@](C)(O)[C@H]1[C@H](O)C[C@@]2(C)[C@@H]3CC=C4[C@@H](C[C@H](O)[C@H](O)C4(C)C)[C@]3(C)C(=O)C[C@]12C`, the T/C (dose: 80.0 mg/kg/injection, schedule: Q01DX010 (ip), vehicle: saline) is reported as 109 % of control, the T/C (dose: 120.0 mg/kg/injection, schedule: Q01DX010 (ip), vehicle: saline) is reported as 122 % of control and the T/C (dose: 180.0 mg/kg/injection, schedule: Q01DX010 (ip), vehicle: saline) is reported as 118 % of control.

With `COC(C)C(NC(=O)C1CCCN1C)C1OC(SCCOC(=O)c2ccccc2O)C(O)C(O)C1O` (configuration not stated) the T/C [12] was 100 % of control, the T/C [13] was 100 % of control and 101 % of control (2×) and the T/C (dose: 200.0 mg/kg/injection, schedule: Q01DX009 (ip), vehicle: saline) was 104 % of control.

For `CCC[CH2][Sn](=[S])[CH2]CCC`, the T/C (dose: 0.59 mg/kg/injection, schedule: Q01DX009 (ip), vehicle: other) was 111 % of control, the T/C (dose: 1.33 mg/kg/injection, schedule: Q01DX009 (ip), vehicle: other) was 115 % of control and the T/C (dose: 1.56 mg/kg/injection, schedule: Q04DX003 (ip), vehicle: other) was 109 % of control. For the same molecule, the T/C (dose: 2.66 mg/kg/injection, schedule: Q04DX003 (ip), vehicle: other) was 109 % of control, the T/C (dose: 3.13 mg/kg/injection, schedule: Q04DX003 (ip), vehicle: other) was 116 % of control and the T/C (dose: 6.25 mg/kg/injection, schedule: Q04DX003 (ip), vehicle: other) was 156 % of control. The T/C (dose: 200.0 mg/kg/injection, schedule: Q01DX010 (ip), vehicle: carboxymethylcellulose (CMC)) was 110 % of control.

For `CNC(=O)C(C)(C)Br`, the T/C (dose: 200.0 mg/kg/injection, schedule: Q04DX003 (ip), vehicle: saline) was 100 % of control and the T/C (dose: 400.0 mg/kg/injection, schedule: Q04DX003 (ip), vehicle: saline) was 90 % of control.

With `C=CCNC(=S)Nc1cc(Cl)ccc1OC` the T/C [4] was 109 % of control, the T/C [6] was 95 % of control and the T/C [7] was 95 % of control.

`CCCCC(CC)CCC(O)CC(C)C` (configuration not stated) was tested, and the T/C (dose: 50.0 mg/kg/injection, schedule: Q01DX009 (ip), vehicle: Klucel (hydroxypropylcellulose) (HPC)) was 100 % of control, the T/C [3] was 95 % of control and the T/C [4] was 104 % of control. For the same molecule, the T/C [5] was 100 % of control, the T/C [6] was 100 % of control and the T/C [7] was 100 % of control.

With `COc1cc2c(cc1OC)-c1c3c(cc4c1[C@@H](C2)N(C)CC4)OCO3` the T/C (dose: 12.5 mg/kg/injection, schedule: Q01DX009 (ip), vehicle: acid diluted with saline) was 100 % of control, the T/C (dose: 25.0 mg/kg/injection, schedule: Q01DX009 (ip), vehicle: acid diluted with saline) was 100 % of control and the T/C (dose: 50.0 mg/kg/injection, schedule: Q01DX009 (ip), vehicle: acid diluted with saline) was 105 % of control.

In the case of `CCCCCCCCN(c1ccc(I)cc1)S(=O)(=O)c1ccc(C)cc1`, the T/C [10] is reported as 111 % of control and the T/C [11] is reported as 111 % of control.

`COc1ccc(C(=O)/C=C/c2ccc(OCc3ccccc3)cc2)c(OC)c1` was tested, and the T/C [8] was 103 % of control, the T/C [9] was 94 % of control and the T/C [14] was 90 % of control.

For `CCC(C)C(NC(=O)C(Cc1ccc(O)cc1)NC(=O)C(N)C(C)C)C(=O)NC(Cc1cnc[nH]1)C(=O)N1CCCC1C(=O)NC(Cc1ccccc1)C(=O)OC` (configuration not stated), the T/C (dose: 50.0 mg/kg/injection, schedule: Q01DX005 (ip), vehicle: saline with Tween-80) was 101 % of control, the T/C (dose: 100.0 mg/kg/injection, schedule: Q01DX005 (ip), vehicle: saline with Tween-80) was 90 % of control and the T/C (dose: 200.0 mg/kg/injection, schedule: Q01DX005 (ip), vehicle: saline with Tween-80) was 90 % of control.

In the case of `BrC1C(Br)C(Br)C2OC2C1Br` (configuration not stated), the T/C [4] is reported as 100 % of control, the T/C [6] is reported as 105 % of control and the T/C [7] is reported as 100 % of control.

In the case of `CC(=O)OC1CCC2(C)C(CC(=O)C(C)C23CCC2(C=COC2)O3)C1(C)C` (configuration not stated), the T/C [2] is reported as 113 % of control, the T/C [12] is reported as 105 % of control and the T/C [9] is reported as 109 % of control. The T/C [13] was 122 % of control and the T/C [14] was 102 % of control.

With `O=[N+]([O-])c1cccc(N/N=C\c2c(Cl)n(-c3ccccc3)c3ccccc23)c1` the T/C (dose: 100.0 mg/kg/injection, schedule: Q04DX002 (ip), vehicle: Klucel (hydroxypropylcellulose) (HPC)) was 97 % of control, the T/C (dose: 200.0 mg/kg/injection, schedule: Q04DX002 (ip), vehicle: Klucel (hydroxypropylcellulose) (HPC)) was 93 % of control and the T/C (dose: 400.0 mg/kg/injection, schedule: Q04DX002 (ip), vehicle: Klucel (hydroxypropylcellulose) (HPC)) was 99 % of control.
